Experimental data taken from US20230120564A1, “PYRIDO[3,4-D]PYRIMIDINE DERIVATIVE AND THERAPEUTIC PHARMACEUTIC COMPOSITION COMPRISING SAME” (KOREA INSTITUTE OF SCIENCE AND TECHNOLOGY, priority 2020, published 2023).

Tests used:
Assay in all cases: full kinase panel biochemical assay
BMX/ETK = BMX/ETK (Homo sapiens, UniProt P51813); conditions: single concentration of 1 μM; read-out: percent inhibition of BMX/ETK
Procedure: (§1) In order to measure the protein kinase inhibitory activity (% inhibition) of the compound of the present invention, biochemical assay was performed in the full kinase panel. As a test compound, Compound No. 4 was used. The percent inhibition of each kinase when treated with the test compound at a single concentration of 1 μM was measured, and the residual enzyme activity values (%) of the kinases were calculated. Kinases whose calculated residual enzyme activity values (%) was 30% or less (i.e., kinases inhibited by 70% or more) are as follows: ABL1, ABL2/ARG, ACK1, ARAF, BLK, BMX/ETK, BRAF, BRK, BTK, c-Kit, c-Src, CSK, DDR1, DDR2, EPHA1, EPHA2, EPHA3, EPHA4, EPHA5, EPHA6, EPHA7, EPHA8, EPHB1, EPHB2, EPHB3, EPHB4, ERBB2/HER2, ERBB4/HER4, FGFR1, FGFR2, FGFR3, FGR, FLT1/VEGFR1, FLT4/VEGFR3, FMS, FRK/PTK5, FYN, GCK/MAP4K2, HCK, HGK/MAP4K4, JAK1, JAK2, KDR/VEGFR2, KHS/MAP4K5, LCK, LYN, LYN B, MEKK1, MLK4, MYLK3, NEK5, P38a/MAPK14, P38b/MAPK11, PDGFRa, PDGFRb, PEAK1, RET, RIPK2, RIPK4, SIK2, SRPK1, TAOK3/JIK, TLK1, TNK1, TXK, TYK2, YES/YES1, YSK4/MAP3K19, and ZAK/MLTK.

ERBB2/HER2 = ERBB2/HER2 (Homo sapiens, UniProt P04626); conditions: single concentration of 1 μM; read-out: percent inhibition of ERBB2/HER2
Procedure: as §1

PEAK1 = PEAK1 (Homo sapiens, UniProt Q9H792); conditions: single concentration of 1 μM; read-out: percent inhibition of PEAK1
Procedure: as §1

FGFR2 = FGFR2 (Homo sapiens, UniProt P21802); conditions: single concentration of 1 μM; read-out: percent inhibition of FGFR2
FGFR2, sequence (P21802 22-821): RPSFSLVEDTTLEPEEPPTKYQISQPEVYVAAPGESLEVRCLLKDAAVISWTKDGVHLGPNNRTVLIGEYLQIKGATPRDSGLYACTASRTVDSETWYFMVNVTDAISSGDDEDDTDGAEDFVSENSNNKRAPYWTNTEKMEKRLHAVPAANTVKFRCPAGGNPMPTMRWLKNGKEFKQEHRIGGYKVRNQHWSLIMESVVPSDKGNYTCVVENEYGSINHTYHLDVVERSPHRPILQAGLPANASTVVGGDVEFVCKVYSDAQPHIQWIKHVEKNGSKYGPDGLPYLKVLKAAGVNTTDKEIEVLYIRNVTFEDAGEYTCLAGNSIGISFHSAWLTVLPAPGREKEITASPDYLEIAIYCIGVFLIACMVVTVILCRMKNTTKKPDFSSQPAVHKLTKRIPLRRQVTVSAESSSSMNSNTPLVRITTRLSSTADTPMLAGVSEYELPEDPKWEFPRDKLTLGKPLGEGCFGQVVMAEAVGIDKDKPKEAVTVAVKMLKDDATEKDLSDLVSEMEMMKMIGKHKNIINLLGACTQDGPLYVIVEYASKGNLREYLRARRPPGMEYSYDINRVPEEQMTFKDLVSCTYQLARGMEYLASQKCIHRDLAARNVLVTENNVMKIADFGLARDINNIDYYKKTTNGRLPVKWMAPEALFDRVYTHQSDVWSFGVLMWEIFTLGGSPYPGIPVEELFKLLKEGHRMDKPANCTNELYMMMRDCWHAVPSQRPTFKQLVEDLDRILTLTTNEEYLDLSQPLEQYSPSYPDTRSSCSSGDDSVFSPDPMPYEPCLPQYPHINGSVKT
Procedure: as §1

CSK = CSK (Homo sapiens, UniProt P41240); conditions: single concentration of 1 μM; read-out: percent inhibition of CSK
CSK, sequence (P41240 whole entry): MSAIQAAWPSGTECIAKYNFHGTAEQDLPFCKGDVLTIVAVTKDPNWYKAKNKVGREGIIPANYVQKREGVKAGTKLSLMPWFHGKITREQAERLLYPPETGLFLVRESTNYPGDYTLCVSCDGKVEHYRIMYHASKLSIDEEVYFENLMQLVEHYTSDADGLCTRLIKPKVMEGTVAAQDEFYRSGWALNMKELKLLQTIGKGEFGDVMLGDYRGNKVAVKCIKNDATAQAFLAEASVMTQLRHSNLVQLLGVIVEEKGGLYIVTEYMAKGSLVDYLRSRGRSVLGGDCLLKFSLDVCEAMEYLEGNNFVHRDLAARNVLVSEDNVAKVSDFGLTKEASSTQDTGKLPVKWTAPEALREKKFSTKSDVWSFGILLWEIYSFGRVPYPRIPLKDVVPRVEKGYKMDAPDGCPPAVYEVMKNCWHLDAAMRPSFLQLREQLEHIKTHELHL
Procedure: as §1

TYK2 = TYK2 (Homo sapiens, UniProt P29597); conditions: single concentration of 1 μM; read-out: percent inhibition of TYK2
Procedure: as §1

EPHA8 = EPHA8 (Homo sapiens, UniProt P29322); conditions: single concentration of 1 μM; read-out: percent inhibition of EPHA8
Procedure: as §1

DDR2 = DDR2 (Homo sapiens, UniProt Q16832); conditions: single concentration of 1 μM; read-out: percent inhibition of DDR2
Procedure: as §1

EPHA5 = EPHA5 (Homo sapiens, UniProt P54756); conditions: single concentration of 1 μM; read-out: percent inhibition of EPHA5
Procedure: as §1

SRPK1 = SRPK1 (Homo sapiens, UniProt Q96SB4); conditions: single concentration of 1 μM; read-out: percent inhibition of SRPK1
SRPK1, sequence (Q96SB4 whole entry): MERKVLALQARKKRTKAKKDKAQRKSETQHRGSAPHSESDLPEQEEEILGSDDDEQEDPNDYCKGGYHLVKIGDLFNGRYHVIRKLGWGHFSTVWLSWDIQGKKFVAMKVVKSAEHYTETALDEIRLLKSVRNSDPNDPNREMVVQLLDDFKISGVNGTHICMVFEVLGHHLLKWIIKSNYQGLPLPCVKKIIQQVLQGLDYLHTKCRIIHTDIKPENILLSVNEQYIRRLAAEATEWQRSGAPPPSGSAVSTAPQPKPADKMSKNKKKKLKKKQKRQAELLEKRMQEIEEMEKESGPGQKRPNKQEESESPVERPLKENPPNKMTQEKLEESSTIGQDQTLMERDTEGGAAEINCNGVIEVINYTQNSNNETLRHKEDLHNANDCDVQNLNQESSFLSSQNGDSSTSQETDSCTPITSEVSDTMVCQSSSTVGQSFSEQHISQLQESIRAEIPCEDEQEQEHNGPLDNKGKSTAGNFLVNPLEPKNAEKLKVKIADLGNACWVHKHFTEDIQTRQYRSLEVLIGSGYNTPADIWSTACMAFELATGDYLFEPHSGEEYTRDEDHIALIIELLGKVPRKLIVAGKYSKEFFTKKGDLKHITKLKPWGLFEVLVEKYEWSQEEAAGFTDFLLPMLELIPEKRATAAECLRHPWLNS
Procedure: as §1

ERBB4/HER4 = ERBB4/HER4 (Homo sapiens, UniProt Q15303); conditions: single concentration of 1 μM; read-out: percent inhibition of ERBB4/HER4
Procedure: as §1

DDR1 = DDR1 (Homo sapiens, UniProt Q08345); conditions: single concentration of 1 μM; read-out: percent inhibition of DDR1
DDR1, sequence (Q08345 19-913): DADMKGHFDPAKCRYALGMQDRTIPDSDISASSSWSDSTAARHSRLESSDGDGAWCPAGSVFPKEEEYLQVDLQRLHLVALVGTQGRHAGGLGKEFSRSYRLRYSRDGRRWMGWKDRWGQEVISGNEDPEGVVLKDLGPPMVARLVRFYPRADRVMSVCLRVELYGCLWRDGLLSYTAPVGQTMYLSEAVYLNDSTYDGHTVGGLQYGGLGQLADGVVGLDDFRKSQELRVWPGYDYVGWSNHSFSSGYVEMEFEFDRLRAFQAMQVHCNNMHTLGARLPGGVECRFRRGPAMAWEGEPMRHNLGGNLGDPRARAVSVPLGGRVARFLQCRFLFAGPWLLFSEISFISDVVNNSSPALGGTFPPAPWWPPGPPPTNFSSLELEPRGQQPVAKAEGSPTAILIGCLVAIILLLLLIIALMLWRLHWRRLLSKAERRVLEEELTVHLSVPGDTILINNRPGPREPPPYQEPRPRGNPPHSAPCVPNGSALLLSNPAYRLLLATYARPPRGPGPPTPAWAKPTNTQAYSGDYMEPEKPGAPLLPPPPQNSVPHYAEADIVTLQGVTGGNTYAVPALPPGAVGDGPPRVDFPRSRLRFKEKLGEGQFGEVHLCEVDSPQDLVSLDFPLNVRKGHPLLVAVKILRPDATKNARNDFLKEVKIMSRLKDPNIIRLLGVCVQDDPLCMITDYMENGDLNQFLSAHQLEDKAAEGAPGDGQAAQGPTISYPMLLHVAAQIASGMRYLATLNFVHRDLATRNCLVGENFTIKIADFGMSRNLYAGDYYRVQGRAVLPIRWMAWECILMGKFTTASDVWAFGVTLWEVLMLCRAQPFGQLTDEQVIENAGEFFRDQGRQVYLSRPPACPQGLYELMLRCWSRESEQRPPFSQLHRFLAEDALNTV
Procedure: as §1

BTK = BTK (Homo sapiens, UniProt Q06187); conditions: single concentration of 1 μM; read-out: percent inhibition of BTK
Procedure: as §1

MLK4 = MLK4 (Homo sapiens, UniProt Q5TCX8); conditions: single concentration of 1 μM; read-out: percent inhibition of MLK4
Procedure: as §1

FMS = FMS (Homo sapiens, UniProt P07333); conditions: single concentration of 1 μM; read-out: percent inhibition of FMS
FMS, sequence (P07333 20-972): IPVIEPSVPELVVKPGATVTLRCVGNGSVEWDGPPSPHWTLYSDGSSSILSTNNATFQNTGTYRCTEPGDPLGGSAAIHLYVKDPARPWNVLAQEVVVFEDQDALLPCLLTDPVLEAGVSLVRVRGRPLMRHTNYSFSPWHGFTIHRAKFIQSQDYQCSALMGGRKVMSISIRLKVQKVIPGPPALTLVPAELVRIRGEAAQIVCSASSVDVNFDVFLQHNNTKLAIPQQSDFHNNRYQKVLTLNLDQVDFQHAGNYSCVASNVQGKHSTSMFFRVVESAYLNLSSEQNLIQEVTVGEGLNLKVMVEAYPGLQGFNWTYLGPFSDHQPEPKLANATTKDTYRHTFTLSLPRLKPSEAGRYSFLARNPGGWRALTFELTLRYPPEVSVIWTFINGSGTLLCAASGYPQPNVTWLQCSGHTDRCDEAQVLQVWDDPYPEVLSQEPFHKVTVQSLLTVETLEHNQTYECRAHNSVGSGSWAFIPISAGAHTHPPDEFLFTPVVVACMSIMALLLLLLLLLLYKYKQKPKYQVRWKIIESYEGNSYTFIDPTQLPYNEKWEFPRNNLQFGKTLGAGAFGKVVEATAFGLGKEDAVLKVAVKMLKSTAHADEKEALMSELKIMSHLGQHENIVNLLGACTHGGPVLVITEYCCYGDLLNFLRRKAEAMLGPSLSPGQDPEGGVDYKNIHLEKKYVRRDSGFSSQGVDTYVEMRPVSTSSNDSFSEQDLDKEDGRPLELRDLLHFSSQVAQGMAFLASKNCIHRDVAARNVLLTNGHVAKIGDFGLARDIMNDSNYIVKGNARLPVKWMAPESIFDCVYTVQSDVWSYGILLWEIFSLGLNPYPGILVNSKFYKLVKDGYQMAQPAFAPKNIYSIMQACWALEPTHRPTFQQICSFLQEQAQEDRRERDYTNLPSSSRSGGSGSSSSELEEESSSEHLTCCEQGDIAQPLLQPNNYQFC
Procedure: as §1

FRK/PTK5 = FRK/PTK5 (Homo sapiens, UniProt P42685); conditions: single concentration of 1 μM; read-out: percent inhibition of FRK/PTK5
Procedure: as §1

RIPK4 = RIPK4 (Homo sapiens, UniProt P57078); conditions: single concentration of 1 μM; read-out: percent inhibition of RIPK4
Procedure: as §1

ACK1 = ACK1 (Homo sapiens, UniProt Q07912); conditions: single concentration of 1 μM; read-out: percent inhibition of ACK1
Procedure: as §1

FGFR3 = FGFR3 (Homo sapiens, UniProt P22607); conditions: single concentration of 1 μM; read-out: percent inhibition of FGFR3
Procedure: as §1

EPHA7 = EPHA7 (Homo sapiens, UniProt Q15375); conditions: single concentration of 1 μM; read-out: percent inhibition of EPHA7
EPHA7, sequence (Q15375 28-998): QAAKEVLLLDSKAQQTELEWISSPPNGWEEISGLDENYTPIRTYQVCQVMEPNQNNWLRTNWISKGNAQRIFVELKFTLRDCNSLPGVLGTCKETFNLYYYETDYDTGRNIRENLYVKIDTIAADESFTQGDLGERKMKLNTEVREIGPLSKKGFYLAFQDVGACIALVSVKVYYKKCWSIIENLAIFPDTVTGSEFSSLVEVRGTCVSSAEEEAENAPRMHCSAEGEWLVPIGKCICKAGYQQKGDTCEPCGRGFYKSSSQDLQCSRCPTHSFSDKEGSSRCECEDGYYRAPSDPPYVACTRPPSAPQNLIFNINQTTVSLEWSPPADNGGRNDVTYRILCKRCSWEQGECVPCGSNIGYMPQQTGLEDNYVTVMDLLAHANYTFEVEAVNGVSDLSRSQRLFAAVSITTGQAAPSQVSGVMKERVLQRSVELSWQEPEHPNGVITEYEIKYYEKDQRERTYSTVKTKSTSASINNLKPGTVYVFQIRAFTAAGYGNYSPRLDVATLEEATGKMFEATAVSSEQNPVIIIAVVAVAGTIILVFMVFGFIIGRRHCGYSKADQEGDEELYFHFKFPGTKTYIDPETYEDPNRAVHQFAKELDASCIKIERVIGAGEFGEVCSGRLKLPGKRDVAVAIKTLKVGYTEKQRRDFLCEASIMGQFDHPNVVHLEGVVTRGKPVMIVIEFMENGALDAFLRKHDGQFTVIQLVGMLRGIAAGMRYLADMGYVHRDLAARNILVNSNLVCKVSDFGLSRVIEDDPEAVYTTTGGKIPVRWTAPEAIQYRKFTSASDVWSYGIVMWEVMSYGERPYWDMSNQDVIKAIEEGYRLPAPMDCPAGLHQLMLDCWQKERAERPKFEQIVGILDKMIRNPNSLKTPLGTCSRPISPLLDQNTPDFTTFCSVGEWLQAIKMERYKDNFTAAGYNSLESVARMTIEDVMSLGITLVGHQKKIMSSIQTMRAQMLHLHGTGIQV
Procedure: as §1

MYLK3 = MYLK3 (Homo sapiens, UniProt Q32MK0); conditions: single concentration of 1 μM; read-out: percent inhibition of MYLK3
Procedure: as §1

ZAK/MLTK = ZAK/MLTK (Homo sapiens, UniProt Q9NYL2); conditions: single concentration of 1 μM; read-out: percent inhibition of ZAK/MLTK
Procedure: as §1

PDGFRb = PDGFRb (Homo sapiens, UniProt P09619); conditions: single concentration of 1 μM; read-out: percent inhibition of PDGFRb
Procedure: as §1

ARAF = ARAF (Homo sapiens, UniProt P10398); conditions: single concentration of 1 μM; read-out: percent inhibition of ARAF
Procedure: as §1

Measured: inhibition at 1 µM

Cc1ccc(Nc2ncc3cc(-c4cc(NC(=O)c5cccc(C(F)(F)F)c5)ccc4C)ncc3n2)cn1 [Compound No. 4, N-(4-methyl-3-(2-((6-methylpyridin-3-yl)amino)pyrido[3,4-d]pyrimidin-6-yl)phenyl)-3-(trifluoromethyl)benzamide]
≥ 70%: all assays above
